This passage reports Taste results from ChEMBL document CHEMBL1121609, “Peptide sweeteners. 4. Hydroxy and methoxy substitution of the aromatic ring in L-aspartyl-L-phenylalanine methyl ester. Structure-taste relationships” (J Med Chem, 1980).

Non-standard residues stand in square brackets, D forms with d. Residues, ends and D or L forms follow the SMILES beside them. ξ: configuration not given here. Tyr(3-OMe) = COc1cc(C[C@H](N)C(=O)O)ccc1O; Phe(3-OMe) = COc1cccc(C[C@H](N)C(=O)O)c1; Dopa = N[C@@H](Cc1ccc(O)c(O)c1)C(=O)O; ξPhe(3-OMe) = COc1cccc(CC(N)C(=O)O)c1; mTyr = N[C@@H](Cc1cccc(O)c1)C(=O)O; ξmTyr = NC(Cc1cccc(O)c1)C(=O)O; ξY = NC(Cc1ccc(O)cc1)C(=O)O; ξD = NC(CC(=O)O)C(=O)O

The nature of the first assay: Determined to achieve reproducible taste; + indicates ~1-5 times as sweet as sucrose.
As to `COC(=O)[C@H](Cc1ccc(O)c(OC)c1)NC(=O)C(N)CC(=O)O` (stereo partly specified) (H-[ξD]-[Tyr(3-OMe)]-OMe), the Taste is on record as ~1-5 times as sweet as sucrose.

As for `COC(=O)[C@H](Cc1ccc(O)c(O)c1)NC(=O)[C@@H](N)CC(=O)O` (H-Asp-[Dopa]-OMe), the Taste was ~1-5 times as sweet as sucrose.

A further assay is described as follows: Determined to achieve reproducible taste; ++ indicates ~10-40 times as sweet as sucrose.
For the molecule `COC(=O)[C@H](Cc1ccc(O)cc1)NC(=O)[C@@H](N)CC(=O)O` (H-Asp-Tyr-OMe), the Taste is reported as ~10-40 times as sweet as sucrose.

`COC(=O)[C@H](Cc1cccc(O)c1)NC(=O)[C@@H](N)CC(=O)O` (H-Asp-[mTyr]-OMe): the Taste is given as ~10-40 times as sweet as sucrose.

`COC(=O)[C@H](Cc1ccccc1O)NC(=O)[C@@H](N)CC(=O)O`: the Taste was ~10-40 times as sweet as sucrose.

In the case of `COC(=O)C(Cc1ccc(O)cc1)NC(=O)[C@@H](N)CC(=O)O` (stereo partly specified) (H-Asp-[ξY]-OMe), the Taste is on record as ~10-40 times as sweet as sucrose.

Turning to `COC(=O)C(Cc1cccc(O)c1)NC(=O)[C@@H](N)CC(=O)O` (stereo partly specified) (H-Asp-[ξmTyr]-OMe), the Taste is ~10-40 times as sweet as sucrose.

For `COC(=O)[C@H](Cc1cccc(OC)c1)NC(=O)[C@@H](N)CC(=O)O` (H-Asp-[Phe(3-OMe)]-OMe), the Taste is ~10-40 times as sweet as sucrose.

As for `COC(=O)C(Cc1cccc(OC)c1)NC(=O)[C@@H](N)CC(=O)O` (stereo partly specified) (H-Asp-[ξPhe(3-OMe)]-OMe), the Taste was ~10-40 times as sweet as sucrose.

On to `COC(=O)C(Cc1ccccc1O)NC(=O)[C@@H](N)CC(=O)O` (stereo partly specified), for which the Taste is on record as ~10-40 times as sweet as sucrose.

The next assay is described as follows: Determined to achieve reproducible taste; + indicates ~ 1-5 times as sweet as sucrose.
On to `COC(=O)[C@H](Cc1ccc(OC)cc1)NC(=O)[C@@H](N)CC(=O)O` (H-Asp-Tyr(Me)-OMe), for which the Taste is given as ~ 1-5 times as sweet as sucrose.
